Data published in patent US20040266791A1 (priority 2003, published 2004).
Where a name gives a salt, the structure may show the parent alone.

How the values were obtained:
[1] = cited from earlier work
[2] = Hygroscopicity test / water content by Karl Fischer titration; type: physicochemical; conditions: for Water content in % at 2 weeks, 40/75: 40° C./75% relative humidity; for Water content in % at 2 weeks, normal: normal conditions (open air); for Water content in % at t = 0: before storage, Karl Fischer; for water content: isolated dried product of the example
Description: The salts were subjected to storage at normal conditions (open air) and at 40° C./75% relative humidity. Water content was determined by Karl Fischer titration.

[3] = 1 mg/ml aqueous solution, 2% sorbitol, 0.2% benzoic acid, stress temperatures up to 80° C.
Description: Dissolve the benzoic acid in 60% of the water (heat if necessary to 90° C., allow to cool afterwards). […] The sorbitol is dissolved in the remaining water (40%). Combine both solutions and make up the volume with water.

[4] = in water at 20° C., calculated on free base
Description: The dissolution of the solid can take a period of time until an equilibrium/steady state between the solid and liquid phases is reached. […] This value is taken as the solubility determination.
Then, 2 ml of the suspension was filtered over a micropore filter. Finally, 1.0 ml of the filtrate was freeze-dried, followed by weight determination of the residue. The maximum amount of the salt dissolved (recalculated to the base), was calculated from this weight determination.

Compound | Water content in % at 2 weeks, 40/75 [2] | Water content in % at 2 weeks, normal [2] | Water content in % at t = 0 [2] | solubility (calc. on free base) [4] | also measured
Cc1nc2n(c(=O)c1CCN1CCC(c3noc4cc(F)ccc34)CC1)CCCC2 [Risperidone base, 3-[2-[4-(6-Fluoro-1,2-benzisoxazol-3-yl)-1-piperidinyl]-ethyl]-6,7,8,9-tetrahydro-2-methyl-4-H-pyrido[1,2-a]-pyrimidin-4-one] | – | – | – | – | solubility in water ([1]; background statement, no source given): approximately 4 mg/ml
Cc1nc2n(c(=O)c1CCN1CCC(c3noc4cc(F)ccc34)CC1)CCCC2 [Risperidone dihydrochloride] | 0.15% | 0.15% | 0.13% | – | water content after exposure to air under ambient conditions for 3 weeks ([2]; 3 weeks, air, ambient conditions): 3 weeks: 0.30%; absorbed or adsorbed water ([2]; absence of drying, or standing at ambient temperature in open air): less than 0.5%; hygroscopicity ([2]; standing at ambient temperature in open air): not hygroscopic; stability of solution [3]: surprisingly stable
Cc1nc2n(c(=O)c1CCN1CCC(c3noc4cc(F)ccc34)CC1)CCCC2.O=C(O)C=CC(=O)O [Risperidone hydrogenmaleate] | 0.07% | 0.09% | 0.09% | – | water content [2]: water content: <0.1%; stability of solution [3]: surprisingly stable
Risperidone (L)hemimalate | 1.09% | 0.95% | 0.89% | >300 mg/mL | stability of solution [3]: surprisingly stable
Risperidone Hemifumarate | – | – | – | 3 mg/mL | –
Risperidone acetate monohydrate | 3.66% | 3.39% | 3.78% | 72 mg/mL | –
Risperidone besylate | – | – | – | 6.5 mg/mL | –
Risperidone hemitartrate | 0.59% | 0.56% | 0.28% | 40 mg/mL | water content [2]: Water content: 0.28%
Risperidone mesylate | – | – | 0.41% | >160 mg/mL | Water content in % at 2 weeks, 40/75 ([2]; listed as Mesylate): 8.51%; Water content in % at 2 weeks, 40/75 ([2]; listed as risperidone mesylate): 2 weeks: 8.51%; Water content in % at 2 weeks, normal ([2]; listed as Mesylate): 1.38%; Water content in % at 2 weeks, normal ([2]; listed as risperidone mesylate): for 2 weeks: 1.38%; water content [2]: water content: 0.41%
Risperidone tosylate | – | – | – | 2 mg/mL | –
risperidone tartrate | – | – | – | – | room temperature solubility ([1]; reported in U.S. Pat. No. 5,616,587): about 80 mg/ml
